Test results: patent US20060100431A1, “Biologically active compounds” (Amura Therapeutics Limited, priority 2002, published 2006)

Experiments:
Wild-type cruzipain = Wild-type cruzipain (Trypanosoma cruzi, UniProt P25779); experiment: Trypanosoma cruzi cruzipain peptidase activity assay (Ki); assay type: biochemical; details: read-out: Ki, inhibitors of cruzain and cruzipains
Summary of the method: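 Native cruzipain from T. cruzi Dm28 epimastigotes, 2.5 nM, in 100 mM sodium phosphate pH 6.75 with 1 mM EDTA and 10 mM L-cysteine, 25 °C, DMSO <1%. Rates taken from continuous fluorogenic substrate read; Ki by regression assuming reversible pure-competitive inhibition.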

CPB2.8ΔCTE = molecular target: T1, CPB2.8ΔCTE (Leishmania mexicana, UniProt P36400); experiment: Leishmania mexicana cysteine protease B (CPB) peptidase activity assay (Ki); assay type: biochemical; details: Ki, inhibitors of Leismania mexicana CPB protease
T1 construct: Wild-type recombinant CPB without the C-terminal extention (i.e. CPB2.8ΔCTE); Dr. Jeremy Mottram (Wellcome Centre for Molecular Parasitology, University of Glasgow)
Protocol: Unless otherwise stated, all general chemicals and biochemicals were purchased from either the Sigma Chemical Company, Poole, Dorset, U.K or from Fisher Scientific UK, Loughborough, Leicestershire, U.K. Absorbance assays were carried out in flat-bottomed 96-well plates (Spectra; Greiner Bio-One Ltd., Stonehouse, Gloucestershire, U.K.) using a SpectraMax PLUS384 plate reader (Molecular Devices, Crawley, U.K.). Fluorescence high throughput assays were carried out in either 384-well microtitre plates (Corning Costar 3705 plates, Fisher Scientific) or 96-well ‘U’ bottomed Microfluor W1 microtitre plates (Thermo Labsystems, Ashford, Middlesex, U.K.). Fluorescence assays were monitored using a SpectraMax Gemini fluorescence plate reader (Molecular Devices). For substrates employing either a 7-amino-4-methylcoumarin (AMC) or a 7-amino-4-trifluoromethylcoumarin (AFC) fluorophore, assays were monitored at an excitation wavelength of 365 nm and an emission wavelength of 450 nm and the fluorescence plate reader calibrated with AMC. For substrates employing a 3-amino-benzoyl (Abz) fluorophore, assays were monitored at an excitation wavelength of 310 nm and an emission wavelength of 445 nm; the fluorescence plate reader calibrated with 3-amino-benzamide (Fluka). Unless otherwise indicated, all the peptidase substrates were purchased from Bachem UK, St Helens, Merseyside, UK. Substrates utilizing fluorescence resonance energy transfer methodology (i.e. FRET-based substrates) were synthesized at Incenta Limited using published methods (Atherton & Sheppard, Solid Phase Peptide Synthesis, IRL Press, Oxford, U.K, 1989) and employed Abz (2-aminobenzoyl) as the fluorescence donor and 3-nitro-tyrosine [Tyr(NO2)] as the fluorescence quencher (Meldal, M. and Breddam, K., Anal. Biochem, 195, 141-147, 1991). Hydroxyethylpiperazine ethanesulfonate (HEPES), tris-hydroxylmethyl aminomethane (tris) base, bis-tris-propane and all the biological detergents (e.g. CHAPS, zwittergents, etc.) were purchased from CN Biosciences UK, Beeston, Nottinghamshire, U.K. Glycerol was purchased from Amersham Pharmacia Biotech, Little Chalfont, Buckinghamshire, U.K. Stock solutions of substrate or inhibitor were made up to 10 mM in 100% dimethylsulfoxide (DMSO) (Rathburns, Glasgow, U.K.) and diluted as appropriately required. In all cases the DMSO concentration in the assays was maintained at less than 1% (vol./vol.).
Assay protocols were based on literature precedent (Table 4; Barrett, A. J., Rawlings, N. D. and Woessner, J. F., 1998, Handbook of Proteolytic Enzymes, Academic Press, London and references therein) and modified as required to suit local assay protocols. Enzyme was added as required to initiate the reaction and the activity, as judged by the change in fluorescence upon conversion of substrate to product, was monitored over time. All assays were carried out at 25±1° C.
Wild-type recombinant CPB without the C-terminal extention (i.e. CPB2.8ΔCTE; Sanderson, S. J., et. al., Biochem. J., 347, 383-388, 2000) was obtained from Dr. Jeremy Mottram (Wellcome Centre for Molecular Parasitology, The Anderson College, University of Glasgow, Glasgow, U.K.). Activity assays were carried out in 100 mM sodium acetate; pH 5.5 containing 1 mM EDTA; 200 mM NaCl and 10 mM DTT (Alves, L. C., et. al., Mol. Biochem. Parasitol, 116, 1-9, 2001) using 0.25 nM enzyme. […] The rate of conversion of substrate to product was derived from the slope of the increase in fluorescence monitored continuously over time.
The apparent inhibition constant (Ki) for each compound was determined on the basis that inhibition was reversible and occurred by a pure-competitive mechanism. The Ki values were calculated, from the dependence of enzyme activity as a function of inhibitor concentration, by direct regression analysis (Prism v 3.02) using Equation 2 (Cornish-Bowden, A., 1995.). [formula]

Sequence of Wild-type cruzipain (P25779 whole entry): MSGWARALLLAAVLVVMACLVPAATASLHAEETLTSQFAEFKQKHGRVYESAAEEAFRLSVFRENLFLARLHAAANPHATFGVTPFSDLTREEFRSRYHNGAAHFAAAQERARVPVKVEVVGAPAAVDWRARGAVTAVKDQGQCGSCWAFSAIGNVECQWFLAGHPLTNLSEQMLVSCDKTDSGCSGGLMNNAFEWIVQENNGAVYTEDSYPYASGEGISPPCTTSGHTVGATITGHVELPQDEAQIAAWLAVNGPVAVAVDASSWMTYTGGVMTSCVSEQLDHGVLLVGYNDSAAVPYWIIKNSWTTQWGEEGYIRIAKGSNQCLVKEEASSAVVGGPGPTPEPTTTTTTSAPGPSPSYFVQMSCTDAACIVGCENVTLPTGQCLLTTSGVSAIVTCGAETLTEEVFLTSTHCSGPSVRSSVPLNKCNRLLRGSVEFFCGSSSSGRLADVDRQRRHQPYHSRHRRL
T1 sequence (P36400 126-343, stated change not applied): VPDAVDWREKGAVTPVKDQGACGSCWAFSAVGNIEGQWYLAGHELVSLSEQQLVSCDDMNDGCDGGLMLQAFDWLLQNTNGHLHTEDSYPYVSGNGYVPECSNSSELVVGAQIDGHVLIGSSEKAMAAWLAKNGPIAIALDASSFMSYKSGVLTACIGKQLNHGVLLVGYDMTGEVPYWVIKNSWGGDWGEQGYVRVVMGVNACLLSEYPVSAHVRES

| SMILES | Ki (Wild-type cruzipain) [µM] | Ki (CPB2.8ΔCTE) [µM] |
| --- | --- | --- |
| CC(C)C[C@H](NC(=O)c1ccc(C(C)(C)C)cc1)C(=O)N1CC[C@@H]2[C@H]1C(=O)CN2C(=O)c1ccc(-n2cncn2)cc1 [Example 26, (3aR,6aS)-4-tert-Butyl-N-{(1S)-3-methyl-1-[6-oxo-4-(4-[1,2,4]triazol-1-yl-benzoyl)-hexahydro-pyrrolo[3,2-b]pyrrole-1-carbonyl]-butyl}-benzamide] | < 5 | < 5 |
| CC(C)C[C@H](NC(=O)c1ccc(N(C)C)cc1)C(=O)N1CC[C@@H]2[C@H]1C(=O)CN2C(=O)[C@@H](N)CC(C)(C)C [Example 212, (3aR,6aS)-N-{(1S)-1-[4-((2S)-2-Amino-4,4-dimethyl-pentanoyl)-6-oxo-hexahydro-pyrrolo[3,2-b]pyrrole-1-carbonyl]-3-methyl-butyl}-4-dimethylamino-benzamide] | < 5 | < 5 |
| CC(C)C[C@H](NC(=O)c1ccc(N(C)C)cc1)C(=O)N1CC[C@@H]2[C@H]1C(=O)CN2C(=O)c1ccccc1Cl [Example 72, (3aR,6aS)-N-{(1S)-1-[4-(2-Chloro-benzoyl)-6-oxo-hexahydro-pyrrolo[3,2-b]pyrrole-1-carbonyl)-3-methyl-butyl}-4-dimethylamino-benzamide] | < 5 | < 5 |
| COc1ccc(C(=O)N2CC(=O)[C@@H]3[C@H]2CCN3C(=O)[C@H](CC(C)C)NC(=O)c2ccc(N(C)C)cc2)cc1 [Example 66, (3aR,6aS)-4-Dimethylamino-N-{(1S)-1-[4-(4-methoxy-benzoyl)-6-oxo-hexahydro-pyrrolo[3,2-b]pyrrole-1-carbonyl]-3-methyl-butyl}-benzamide] | < 5 | < 5 |
| CC(C)C[C@H](NC(=O)c1ccc(C(C)(C)C)cc1)C(=O)N1CC[C@@H]2[C@H]1C(=O)CN2C(=O)c1cccc(Br)c1 [Example 25, (3aR,6aS)-N-{(1S)-1-[4-(3-Bromo-benzoyl)-6-oxo-hexahydro-pyrrolo[3,2-b]pyrrole-1-carbonyl]-3-methyl-butyl}-4-tert-butyl-benzamide] | < 5 | < 5 |
| CC(C)C[C@H](NC(=O)c1ccc(N(C)C)cc1)C(=O)N1CC[C@@H]2[C@H]1C(=O)CN2C(=O)c1ccncc1 [Example 82, (3aR,6aS)-4-Dimethylamino-N-{(1S)-3-methyl-1-[6-oxo-4-(pyridinecarbonyl)-hexahydro-pyrrolo[3,2-b]pyrrole-1-carbonyl]-butyl}-benzamide] | < 5 | < 5 |
| CC(C)C[C@H](NC(=O)c1ccc(N(C)C)cc1)C(=O)N1CC[C@@H]2[C@H]1C(=O)CN2C(=O)CC1CCCCC1 [Example 137, (3aR,6aS)-N-{(1S)-1-[4-(2-Cyclohexyl-acetyl)-6-oxo-hexahydro-pyrrolo[3,2-b]pyrrole-1-carbonyl]-3-methyl-butyl}-4-dimethylamino-benzamide] | < 5 | < 5 |
| CC(C)C[C@H](NC(=O)c1ccc(N(C)C)cc1)C(=O)N1CC[C@@H]2[C@H]1C(=O)CN2C(=O)[C@H](Cc1ccccc1)NC(=O)OCc1ccccc1 [Example 160, (3aS,6aR)-((1S)-1-Benzyl-2-{-[(2S)-2-(4-dimethylamino-benzoylamino)-4-methyl-pentanoyl]-3-oxo-hexahydro-pyrrolo[3,2-b]pyrrole-1-yl}-2-oxo-ethyl)-carbamic acid benzyl ester] | < 5 | < 5 |
| CC(C)C[C@H](NC(=O)c1ccc(N(C)C)cc1)C(=O)N1CC[C@@H]2[C@H]1C(=O)CN2C(=O)[C@H](CC(N)=O)NC(=O)OCc1ccccc1 [Example 148, (3aS,6aR)-((1S)-1-Carbamoylmethyl-2-{4-[(2S)-2-(4-dimethylaminobenzoylamino)-4-methyl-pentanoyl]-3-oxo-hexahydro-pyrrolo[3,2-b]pyrrol-1-yl}-2-oxo-ethyl)-carbamic acid benzyl ester] |  | < 5 |
| COc1cc(OC)cc(C(=O)N2CC(=O)[C@@H]3[C@H]2CCN3C(=O)[C@H](CC(C)C)NC(=O)c2ccc(N(C)C)cc2)c1 [Example 112, (3aR,6aS)-N-{(1S)-1-[4-(3,5-Dimethoxy-benzoyl)-6-oxo-hexahydropyrrolo[3,2-b]pyrrole-1-carbonyl]-3-methyl-butyl}-4-dimethylamino-benzamide] |  | < 5 |
| CC(C)C[C@H](NC(=O)c1ccc(C(C)(C)C)cc1)C(=O)N1CC[C@@H]2[C@H]1C(=O)CN2C(=O)Cc1ccccc1 [Example 3, (3aR,6aS)-4-tert-Butyl-N-[(1S)-3-methyl-1-(6-oxo-4-phenylacetyl-hexahydro-pyrrolo[3,2-b]pyrrole-1-carbonyl)-butyl]-benzamide] |  | < 5 |
| CC(C)C[C@H](NC(=O)c1cccc(CN)c1)C(=O)N1CC[C@@H]2[C@H]1C(=O)CN2C(=O)[C@@H](C)c1ccccc1 [Example 177, (3aR,6aS)-3-Aminomethyl-N-{(1S)-3-methyl-1-[6-oxo-4-((2S)-2-phenyl-propionyl)-hexahydro-pyrrolo[3,2-b]pyrrole-1-carbonyl]-butyl}-benzamide] |  | < 5 |
| Cc1ccc(C[C@H](NC(=O)c2ccc(C(C)(C)C)cc2)C(=O)N2CC[C@@H]3[C@H]2C(=O)CN3C(=O)Cc2ccccc2)cc1 [Example 360, (3aR,6aS)-4-tert-Butyl-N-[(1S)-1-(4-methyl-benzyl)-2-oxo-2-(6-oxo-4-phenylacetyl-hexahydro-pyrrolo[3,2-b]pyrrole-1-yl)-ethyl]-benzamide] |  | < 5 |
| COC(=O)c1ccc(C(=O)N2CC(=O)[C@@H]3[C@H]2CCN3C(=O)[C@H](CC(C)C)NC(=O)c2ccc(N(C)C)cc2)cc1 [Example 76, (3aS,6aR)-4-{4-[(2S)-2-(4-Dimethylamino-benzoylamino)-4-methyl-pentanoyl]-3-oxo-hexahydro-pyrrolo[3,2-b]pyrrole-1-carbonyl}-benzoic acid methyl ester] |  | < 5 |
| CC(C)C[C@H](NC(=O)c1ccc(N(C)C)cc1)C(=O)N1CC[C@@H]2[C@H]1C(=O)CN2C(=O)[C@@H](N)CC1CCCCC1 [Example 215, (3aR,6aS)-N-{(1S)-1-[4-((2S)-2-Amino-3-cyclohexyl-propionyl)-6-oxo-hexahydro-pyrrolo[3,2-b]pyrrole-1-carbonyl]-3-methyl-butyl}-4-dimethylamino-benzamide] |  | < 5 |
| CC(C)CC[C@H](N)C(=O)N1CC(=O)[C@@H]2[C@H]1CCN2C(=O)[C@H](CC(C)C)NC(=O)c1ccc(N(C)C)cc1 [Example 213, (3aR,6aS)-N-{(1S)-1-[4-((2S)-2-Amino-5-methyl-hexanoyl)-6-oxo-hexahydro-pyrrolo[3,2-b]pyrrole-1-carbonyl]-3-methyl-butyl}-4-dimethylamino-benzamide] |  | < 5 |
| CCCC(C)C(=O)N1CC(=O)[C@@H]2[C@H]1CCN2C(=O)[C@H](CC(C)C)NC(=O)c1ccc(N(C)C)cc1 (stereo partly drawn) [Example 230, (3aR,6aS)-4-Dimethylamino-N-{(1S)-3-methyl-1-[4-(2-methyl-pentanoyl)-6-oxo-hexahydro-pyrrolo[3,2-b]pyrrole-1-carbonyl]-butyl}-benzamide] |  | < 5 |
| CC(C)C[C@H](NC(=O)c1ccc(-c2cccs2)cc1)C(=O)N1CC[C@@H]2[C@H]1C(=O)CN2S(=O)(=O)c1ccccc1 [Example 120, (3aR,6aS)-N-[(1S)-1-(4-Benzenesulfonyl-6-oxo-hexahydropyrrolo [3,2-b]pyrrole-1-carbonyl)-3-methyl-butyl]-4-thiophen-2-yl-benzamide] |  | < 5 |
